The results in this text go back to patent US20220033435A1, “Cyclic Di-Nucleotide Compounds as STING Agonists” (Merck Sharp & Dohme Corp., priority 2018, published 2022).

For one test, the system named is THP1 cells. Kind of test: IFN-β secretion in THP1 cell culture (5 h). The class given is cell-based, human. As to conditions: cGAMP at 30 uM set at 100%. On the procedure:
IFN-β secretion in THP1 cell culture (5 h)
The ability of compounds to stimulate the secretion of interferon-beta from THP1 cells was measured using a human IFN-0 AlphaLISA kit (Perkin Elmer, Cat. No. AL265F). The basic protocol is as follows:
A Labcyte Echo 550 acoustic dispenser was used to transfer 120 nL of compound dissolved in DMSO into the wells of an empty, sterile 384-well microplate, (Corning, Cat. No. 3712). THP1 cells (American Type Culture Collection, Cat. No. TIB202) previously frozen in Recovery Medium (Life Technologies, Cat. No. 12648-010) were thawed and immediately diluted 10-fold into 37° C. assay medium (RPMI 1640+L-Glutamine & phenol red, Life Technologies, Cat. No. 11875-085; 0.5% heat inactivated fetal bovine serum, Sigma Aldrich, Cat. No. F4135; 1 mM Sodium Pyruvate, Life Technologies, Cat. No. 11360-070; 1× non-essential amino acids; Life Technologies, Cat. No. 11140-050). The cell viability and count was ascertained using a Beckman Coulter V-Cell XR cell counter. The cell suspension was centrifuged at 200×g for 5 min at RT. Cells were resuspended to a density of 0.8×10^6/mL in 37° C. assay medium. Subsequent liquid transfers were performed using either a Matrix electronic multichannel pipette or an Agilent Bravo Automated Liquid Handling Platform. The assay was started by dispensing 40 μL of the previously prepared cell suspension into the wells of the plate containing compounds. After 5 h incubation at 37° C., 5% CO2 in a humidified atmosphere, the plate of cells and compounds was centrifuged at 200×g for 5 min at RT. From each well, 5 μL of supernatant was transferred into corresponding wells of a white 384-well plate (Perkin Elmer, Cat. No. 6005620). To these supernatant-containing wells was added 10 μL of 5× Anti-Analyte Acceptor beads (50 μg/mL of AlphaLISA HiBlock Buffer) and incubated for 30 min at RT while shaking on an orbital plate shaker. To each well was added 10 μL of 5× Biotinylated Antibody Anti-analyte (5 nM in AlphaLISA HiBlock Buffer) and incubated on an orbital plate shaker for 60 min at RT or overnight at 4° C. To each well was added 25 μL of 2×SA-Donor beads (80 μg/mL in AlphaLISA HiBlock Buffer) and incubated for 30-45 min at RT in the dark while shaking on an orbital plate shaker. The plate was then read on a Perkin Elmer Envision (λex=680 nm, […]). The percent effect of the AlphaLISA signal at each compound concentration was calculated based on 30 uM cGAMP positive controls and 0.3% DMSO negative controls. The plot of percent effect versus the log of compound concentration was fit with a 4-parameter concentration response equation to calculate EC50 values. The test compounds were tested at concentrations 30000, 10000, 3333, 1111, 370.4, 123.4, 41.2, 13.7, 4.6, and 1.5 nM with 0.3% residual DMSO. The control compound, cGAMP was tested at concentrations 100000, 33333, 11111, 3704, 1235, 412, 137, 46, and 15 nM with 0.3% residual DMSO.
Compounds of the disclosure were evaluated for IFN-β secretion in THP1 cell culture as described above. The following table tabulates the biological data for these compounds as percent activation relative to 2′3′-cGAMP at the 30 μM concentration.

A further test deals with T1, full-length HAQ STING (Homo sapiens, UniProt Q86WV6, G230A/H232R/R293Q/R71H).
T1 construct: Full-Length HAQ STING [STING(1-379)R71H, G230A, H232R,; made in house; host or cells: Trichoplusia ni (Hi-Five) insect cells infected with baculovirus; washed membranes were used
The test can be described thus: 3H-cGAMP filtration binding assay (HAQ STING). The following applies: competition with tritiated cGAMP ligand, HAQ STING membrane. The source says:
The ability of compounds to bind STING is quantified by the ability to compete with tritiated cGAMP ligand for human STING receptor membrane using a radioactive filter-binding assay. The binding assay employs STING receptor obtained from Hi-Five cell membranes overexpressing full-length HAQ STING prepared in-house and tritiated cGAMP ligand also purified in-house.
The ability of compounds to bind STING is quantified by their ability to compete with tritiated cGAMP ligand for human STING receptor membrane using a radioactive filter-binding assay. The binding assay employs STING receptor obtained from Trichoplusia ni cell membranes (T.ni; Expression Systems, cat #94-002F, www.expressionsystems.com) overexpressing full-length HAQ STING and tritiated cGAMP ligand.
The basic HAQ STING filtration assay protocol is as follows:
Compound and membrane then preincubated for 60 min at RT to allow compound binding to equilibrate. Following equilibration, 8 nM of [^3H]c-GAMP ligand was prepared by diluting into assay buffer, and 50 uL of this working stock was then manually added to each well of the assay plate. […] The filter plates were then dried at 55° C. for 30 min using a pressurized oven before 30 uL of ULTIMA GOLD F scintillate was added to each well. Tritium levels for each reaction well were then measured using a PerkinElmer TopCount plate reader.
After normalization to controls, the percent activity for each compound concentration was calculated by measuring the amount of remaining radioactivity. The plot of percent activity versus the log of compound concentration was fit with a 4-parameter dose response equation to calculate EC50 values.

T1 sequence (Q86WV6 with tags, fused parts or gaps R71H/G230A/H232R/R293Q): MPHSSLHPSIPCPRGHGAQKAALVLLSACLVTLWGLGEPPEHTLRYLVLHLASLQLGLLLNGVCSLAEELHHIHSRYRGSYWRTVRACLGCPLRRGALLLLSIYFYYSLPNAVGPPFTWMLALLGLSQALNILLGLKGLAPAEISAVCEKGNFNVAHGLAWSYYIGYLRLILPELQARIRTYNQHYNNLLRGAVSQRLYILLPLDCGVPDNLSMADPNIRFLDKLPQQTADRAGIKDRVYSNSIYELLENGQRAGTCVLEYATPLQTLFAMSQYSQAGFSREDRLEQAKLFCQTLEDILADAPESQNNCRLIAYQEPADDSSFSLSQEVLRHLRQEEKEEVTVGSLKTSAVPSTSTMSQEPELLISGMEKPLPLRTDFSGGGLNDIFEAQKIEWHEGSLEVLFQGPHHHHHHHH

On to `Nc1nc2c(ncn2[C@@H]2O[C@@H]3COP(=O)(S)O[C@@H]4C[C@H](n5cnc6c(N)ncnc65)O[C@@H]4COP(=O)(S)O[C@@H]2[C@@H]3F)c(=O)[nH]1` (single isomer, unassigned) [Example 1], for which the “% Effect at 30 μM relative to 2′3′-cGAMP” value in the test on THP1 cells amounted to 112%.

As a reminder, the EC50 is the concentration needed to bring the measured effect to its halfway point. The molecule `Nc1ncnc2c1ncn2[C@@H]1O[C@@H]2COP(=O)(S)O[C@@H]3[C@H](O)[C@@H](COP(=O)(S)O[C@@H]2[C@H]1O)O[C@H]3n1ccc(=O)n2ccnc12` (single isomer, unassigned) [Example 5] displayed an EC50 at full-length HAQ STING of 4410 nM. Also, the “% Effect at 30 μM relative to 2′3′-cGAMP” value in the test with THP1 cells was found to be 62%.

On to `Nc1nc2c(ncn2[C@@H]2O[C@@H]3COP(=O)(S)O[C@@H]4[C@H](F)[C@H](n5cnc6c(N)ncnc65)O[C@@H]4COP(=O)(S)O[C@@H]2C3)c(=O)[nH]1` (single isomer, unassigned) [Example 7], for which, at full-length HAQ STING, the EC50 came out at 2.35 nM. Further, the “% Effect at 30 μM relative to 2′3′-cGAMP” value in the test on THP1 cells is reported as 118%.

In the case of `Nc1ncnc2c1ncn2[C@@H]1O[C@@H]2COP(=O)(S)O[C@@H]3[C@H](O)[C@@H](COP(=O)(S)O[C@@H]2[C@H]1O)O[C@H]3n1ccc(=O)n2ccnc12` (single isomer, unassigned) [Example 4], the EC50 at full-length HAQ STING amounted to 3690 nM. In addition, the “% Effect at 30 μM relative to 2′3′-cGAMP” value in the test on THP1 cells is given as 30%.

Turning to `Nc1nc2c(ncn2[C@@H]2O[C@@H]3COP(=O)(S)O[C@@H]4[C@@H](O)[C@H](n5cnc6c(N)ncnc65)O[C@@H]4COP(=O)(S)O[C@@H]2C3)c(=O)[nH]1` (stereo partly drawn) [Example 3, 2-amino-9-[(5S,7R,8R,12aR,14R,15R,15aR)-14-(6-amino-9H-purin-9-yl)-15-hydroxy-2,10-dioxido-2,10-disulfanyloctahydro-12H-5,8-methanofuro[3,2-l][1,3,6,9,11,2,10]penta-oxadiphosphacyclotetradecin-7-yl]-1,9-dihydro-6H-purin-6-one], the “% Effect at 30 μM relative to 2′3′-cGAMP” value with THP1 cells was 63%.

Turning to `Nc1nc2c(ncn2[C@@H]2O[C@@H]3COP(=O)(S)O[C@@H]4[C@H](F)[C@H](n5cnc6c(N)ncnc65)O[C@@H]4COP(=O)(S)O[C@@H]2C3)c(=O)[nH]1` (single isomer, unassigned) [Example 6], the EC50 at full-length HAQ STING was 48.6 nM. Besides, the “% Effect at 30 μM relative to 2′3′-cGAMP” value in the test with THP1 cells is listed as 61%.

For the molecule `Nc1nc2c(ncn2[C@@H]2O[C@@H]3COP(=O)(S)O[C@@H]4C[C@H](n5cnc6c(N)ncnc65)O[C@@H]4COP(=O)(S)O[C@@H]2[C@@H]3F)c(=O)[nH]1` (single isomer, unassigned) [Example 2], in the test with THP1 cells, the “% Effect at 30 μM relative to 2′3′-cGAMP” value is 114%.
